Experimental data reported in patent US12558428B2, “Heterobifunctional compounds and their use in treating disease” (Halda Therapeutics OpCo, Inc., priority 2024, dated 2026).

How the values were obtained:
Assay type in all cases: cell-based
[1] = system: T-Rex 293 cells having increased expression of estrogen receptor alpha protein; assay: Cellular growth inhibition assay, T-Rex 293 cells, (+) doxycycline; conditions: T-REx-293, 72 h, Table 7-A; T-Rex 293 cells with doxycycline (increased ERα expression); 72 hours; CellTiter-Glo; read-out: (+) Dox GI50
In short: (§1)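 Growth of a doxycycline-inducible ERα T-Rex 293 clone, induced or not with 3 ng/mL doxycycline, was followed for 72 h with test compound in hormone-depleted medium. CellTiter-Glo luminescence gave GI50.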

[2] = system: T-Rex 293 cells lacking increased expression of estrogen receptor alpha protein; assay: Cellular growth inhibition assay, T-Rex 293 cells, (−) doxycycline; conditions: T-REx-293, 72 h, Table 7-A; T-Rex 293 cells without doxycycline (lacking increased ERα expression); 72 hours; CellTiter-Glo; read-out: (−) Dox GI50
In short: as §1

[3] = system: MCF7 cells (ATCC #HTB-22); assay: Cellular growth inhibition assay, MCF7 cells purchased from ATCC; conditions: Homo sapiens, MCF7, 144 h, Table 8-A; MCF7 cells purchased from ATCC; six days; CellTiter-Glo; read-out: GI50
In short: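 GI50 values come from a four-parameter fit of CellTiter-Glo 2.0 luminescence after six days of compound exposure at 37° C. Seeding density depended on the source: 225 cells/well for ECACC MCF7, 1,500 for ATCC. Medium was RPMI 1640 with 10% FBS and 0.2 U/ml insulin.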

Structure (SMILES)	GI50 [1]	GI50 [2]	GI50 [3]
Cc1sc2c(c1C)C(c1ccc(N3CCC(CN4CCN(c5ccc([C@@H]6c7ccc(O)cc7CC[C@@H]6c6ccccc6)cc5)CC4)CC3)cc1)=N[C@@H](Cc1ncco1)c1nnc(C)n1-2 [III-73]	< 50 nM	500 to 2500 nM	< 50 nM
Cc1sc2c(c1C)C(c1ccc(N3CCC(CN4CCN(c5ccc([C@@H]6c7ccc(O)cc7CC[C@@H]6c6ccccc6)cc5)CC4)CC3)cc1)=N[C@H](Cc1ncco1)c1nnc(C)n1-2 [III-74]	< 50 nM	50 to 500 nM	50 to 500 nM
Cc1sc2c(c1C)C(c1ccc(N3CCC4(CC3)CN(CCOc3ccc([C@@H]5c6ccc(O)cc6CC[C@@H]5c5ccccc5)cc3)C4)cc1)=N[C@@H](C)c1nnc(C)n1-2 [III-78]	50 to 500 nM	50 to 500 nM	50 to 500 nM
Cc1sc2c(c1C)C(c1ccc(N3CCC4(CC3)CN(CCOc3ccc([C@H]5c6ccc(O)cc6CC[C@H]5c5ccccc5)cc3)C4)cc1)=N[C@@H](C)c1nnc(C)n1-2 [III-79]	50 to 500 nM	50 to 500 nM	50 to 500 nM
Cc1sc2c(c1C)C(c1ccc(N3CCN(CCC4CN(c5ccc([C@@H]6c7ccc(O)cc7CC[C@@H]6c6ccccc6)cc5)C4)CC3)cc1)=N[C@@H](C)c1nnc(C)n1-2 [III-80]	50 to 500 nM	500 to 2500 nM	> 2500 nM
Cc1sc2c(c1C)C(c1ccc(N3CCN(CC4CCN(c5ccc([C@@H]6c7ccc(O)cc7CC[C@@H]6c6ccccc6)cc5)CC4)CC3)cc1)=N[C@@H](CC(=O)O)c1nnc(C)n1-2 [III-81]	50 to 500 nM	> 2500 nM	50 to 500 nM
Cc1sc2c(c1C)C(c1ccc(C34COC(CN5CCN(c6ccc([C@@H]7c8ccc(O)cc8CC[C@@H]7c7ccccc7)cc6)CC5)(C3)C4)cc1)=N[C@@H](C)c1nnc(C)n1-2 [III-82]	50 to 500 nM	500 to 2500 nM	50 to 500 nM
Cc1sc2c(c1C)C(c1ccc(C34COC(CN5CCN(c6ccc([C@H]7c8ccc(O)cc8CC[C@H]7c7ccccc7)cc6)CC5)(C3)C4)cc1)=N[C@@H](C)c1nnc(C)n1-2 [III-83]	50 to 500 nM	500 to 2500 nM	50 to 500 nM
Cc1sc2c(c1C)C(c1ccc(N3CC(CCN4CC(COc5ccc([C@@H]6c7ccc(O)cc7CC[C@@H]6c6ccccc6)cc5)C4)C3)cc1)=N[C@@H](C)c1nnc(C)n1-2 [III-84]	< 50 nM	500 to 2500 nM	50 to 500 nM
Cc1sc2c(c1C)C(c1ccc(N3CC(CCN4CC(COc5ccc([C@H]6c7ccc(O)cc7CC[C@H]6c6ccccc6)cc5)C4)C3)cc1)=N[C@@H](C)c1nnc(C)n1-2 [III-85]	50 to 500 nM	500 to 2500 nM	50 to 500 nM
Cc1sc2c(c1C)C(c1ccc(OC3CCN(CC4CCN(c5ccc([C@@H]6c7ccc(O)cc7CC[C@@H]6c6ccccc6)cc5)CC4)CC3)cc1)=N[C@@H](C)c1nnc(C)n1-2 [III-86]	50 to 500 nM	500 to 2500 nM	50 to 500 nM
Cc1sc2c(c1C)C(c1ccc(N3CCC(CN4CC5(CCN(c6ccc([C@@H]7c8ccc(O)cc8CC[C@@H]7c7ccccc7)cc6)CC5)C4)CC3)cc1)=N[C@@H](C)c1nnc(C)n1-2 [III-87]	< 50 nM	50 to 500 nM	< 50 nM
Cc1sc2c(c1C)C(c1ccc(N3CCC4(CC3)CN(CC3CCN(c5ccc([C@@H]6c7ccc(O)cc7CC[C@@H]6c6ccccc6)cc5)CC3)C4)cc1)=N[C@@H](C)c1nnc(C)n1-2 [III-88]	< 50 nM	50 to 500 nM	< 50 nM
Cc1sc2c(c1C)C(c1ccc(N3CC(CN4CCN(c5ccc([C@@H]6c7ccc(O)cc7CC[C@@H]6c6ccccc6)cc5)CC4)C3)cc1)=N[C@@H](C)c1nnc(C)n1-2 [III-89]	< 50 nM	500 to 2500 nM	50 to 500 nM
Cc1sc2c(c1C)C(c1ccc(OC3CC4(CCN(c5ccc([C@@H]6c7ccc(O)cc7CC[C@@H]6c6ccccc6)cc5)CC4)C3)cc1)=N[C@@H](C)c1nnc(C)n1-2 [III-90]	500 to 2500 nM	> 2500 nM	50 to 500 nM
Cc1sc2c(c1C)C(c1ccc(N3CCC(CN4CC(COc5ccc([C@@H]6c7ccc(O)cc7CC[C@@H]6c6ccccc6)cc5)C4)CC3)cc1)=N[C@@H](Cc1ncco1)c1nnc(C)n1-2 [III-91]	50 to 500 nM	500 to 2500 nM	< 50 nM
Cc1sc2c(c1C)C(c1ccc(N3CCC(CN4CC(COc5ccc([C@H]6c7ccc(O)cc7CC[C@H]6c6ccccc6)cc5)C4)CC3)cc1)=N[C@@H](Cc1ncco1)c1nnc(C)n1-2 [III-92]	50 to 500 nM	50 to 500 nM	50 to 500 nM
Cc1sc2c(c1C)C(c1ccc(C3CN(CCN4CC(COc5ccc([C@@H]6c7ccc(O)cc7CC[C@@H]6c6ccccc6)cc5)C4)C3)cc1)=N[C@@H](C)c1nnc(C)n1-2 [III-95]	< 50 nM	50 to 500 nM	< 50 nM

Structure (SMILES)	GI50 [1]	GI50 [2]	GI50 [3]
Cc1sc2c(c1C)C(c1ccc(C3CN(CCN4CC(COc5ccc([C@H]6c7ccc(O)cc7CC[C@H]6c6ccccc6)cc5)C4)C3)cc1)=N[C@@H](C)c1nnc(C)n1-2 [III-96]	50 to 500 nM	50 to 500 nM	50 to 500 nM
Cc1sc2c(c1C)C(c1ccc(N3CC4(CN(CC5CCN(c6ccc([C@@H]7c8ccc(O)cc8CC[C@@H]7c7ccccc7)cc6)CC5)C4)C3)cc1)=N[C@@H](C)c1nnc(C)n1-2 [III-97]	< 50 nM	500 to 2500 nM	< 50 nM
Cc1sc2c(c1C)C(c1ccc(CCN3CC4(CCN(c5ccc([C@@H]6c7ccc(O)cc7CC[C@@H]6c6ccccc6)cc5)CC4)C3)cc1)=N[C@@H](C)c1nnc(C)n1-2 [III-98]	< 50 nM	500 to 2500 nM	50 to 500 nM
Cc1sc2c(c1C)C(c1ccc(N3CC(CN4CC(Oc5ccc([C@@H]6c7ccc(O)cc7CC[C@@H]6c6ccccc6)cc5)C4)C3)cc1)=N[C@@H](C)c1nnc(C)n1-2 [III-99]	50 to 500 nM	50 to 500 nM	50 to 500 nM
Cc1sc2c(c1C)C(c1ccc(N3CC(CN4CC(Oc5ccc([C@H]6c7ccc(O)cc7CC[C@H]6c6ccccc6)cc5)C4)C3)cc1)=N[C@@H](C)c1nnc(C)n1-2 [III-100]	50 to 500 nM	50 to 500 nM	50 to 500 nM
Cc1sc2c(c1C)C(c1ccc(N3CC(CN4CC(COc5ccc([C@@H]6c7ccc(O)cc7CC[C@@H]6c6ccccc6)cc5)C4)C3)cc1)=N[C@@H](C)c1nnc(C)n1-2 [III-101]	< 50 nM	50 to 500 nM	50 to 500 nM
Cc1sc2c(c1C)C(c1ccc(N3CC(CN4CC(COc5ccc([C@H]6c7ccc(O)cc7CC[C@H]6c6ccccc6)cc5)C4)C3)cc1)=N[C@@H](C)c1nnc(C)n1-2 [III-102]	50 to 500 nM	50 to 500 nM	50 to 500 nM
Cc1sc2c(c1C)C(c1ccc(NCCN3CCN(CCOc4ccc([C@@H]5c6ccc(O)cc6CC[C@@H]5c5ccccc5)cc4)CC3)cc1)=N[C@@H](Cc1ncco1)c1nnc(C)n1-2 [III-103]	< 50 nM	50 to 500 nM	< 50 nM
Cc1sc2c(c1C)C(c1ccc(NCCN3CCN(CCOc4ccc([C@H]5c6ccc(O)cc6CC[C@H]5c5ccccc5)cc4)CC3)cc1)=N[C@@H](Cc1ncco1)c1nnc(C)n1-2 [III-104]	< 50 nM	50 to 500 nM	< 50 nM
Cc1sc2c(c1C)C(c1ccc(N3CCC(N4CCN(CCOc5ccc([C@@H]6c7ccc(O)cc7CC[C@@H]6c6ccccc6)cc5)CC4)CC3)cc1)=N[C@@H](Cc1ncco1)c1nnc(C)n1-2 [III-105]	< 50 nM	50 to 500 nM	< 50 nM
Cc1sc2c(c1C)C(c1ccc(N3CC(CN4CCC(COc5ccc([C@@H]6c7ccc(O)cc7CC[C@@H]6c6ccccc6)cc5)CC4)C3)cc1)=N[C@@H](C)c1nnc(C)n1-2 [III-106]	< 50 nM	500 to 2500 nM	50 to 500 nM
Cc1sc2c(c1C)C(c1ccc(CN3CC4(CCN(c5ccc([C@@H]6c7ccc(O)cc7CC[C@@H]6c6ccccc6)cc5)CC4)C3)cc1)=N[C@@H](C)c1nnc(C)n1-2 [III-107]	50 to 500 nM	500 to 2500 nM	50 to 500 nM
Cc1sc2c(c1C)C(c1ccc(N3CCC4(CC3)CN(CC3CN(c5ccc([C@@H]6c7ccc(O)cc7CC[C@@H]6c6ccccc6)cc5)C3)C4)cc1)=N[C@@H](C)c1nnc(C)n1-2 [III-108]	< 50 nM	50 to 500 nM	< 50 nM
Cc1sc2c(c1C)C(c1ccc(OCCN3CCN(CCOc4ccc([C@@H]5c6ccc(O)cc6CC[C@@H]5c5ccccc5)cc4)CC3)cc1)=N[C@@H](Cc1ncco1)c1nnc(C)n1-2 [III-109]	< 50 nM	50 to 500 nM	50 to 500 nM
Cc1sc2c(c1C)C(c1ccc(OCCN3CCN(CCOc4ccc([C@H]5c6ccc(O)cc6CC[C@H]5c5ccccc5)cc4)CC3)cc1)=N[C@@H](Cc1ncco1)c1nnc(C)n1-2 [III-110]	< 50 nM	< 50 nM	< 50 nM
Cc1sc2c(c1C)C(c1ccc(OCC3CCN(CCOc4ccc([C@@H]5c6ccc(O)cc6CC[C@@H]5c5ccccc5)cc4)CC3)cc1)=N[C@@H](Cc1ncco1)c1nnc(C)n1-2 [III-111]	< 50 nM	50 to 500 nM	50 to 500 nM
Cc1sc2c(c1C)C(c1ccc(OCC3CCN(CCOc4ccc([C@H]5c6ccc(O)cc6CC[C@H]5c5ccccc5)cc4)CC3)cc1)=N[C@@H](Cc1ncco1)c1nnc(C)n1-2 [III-112]	50 to 500 nM	50 to 500 nM	50 to 500 nM
